# Test results as given in publication PMC5286506 (Scientific Reports, 2017).
# Like-named read-outs stand apart in the source and are kept apart here.
# Key:
# R5-tropic HIV-1BaL = assay: HIV-1BaL infection of activated PBMCs, HIV-1 gag p24 ELISA on day 7; assay type: cell-based
# Experimental: (§1) Mock-infected PBMCs were used as the negative control.
# (§2) The antiviral activity of each drug, M48U1 and tenofovir, formulated in 0.25% HEC hydrogel was determined in an activated PBMC model. […] This mixture was added to PBMCs activated with IL-2 and PHA for a two-hour incubation at 37 °C. To evaluate the antiviral effect of M48U1, the level of HIV-1 gag p24 protein in the culture supernatant was determined at seven days post-infection using an ELISA. A significant decrease (p < 0.05; Mann Whitney test) in the HIV-1 p24 level was found (Fig. 1).
# (§3) Figure 1 M48U1 and tenofovir formulated in 0.25% HEC each inhibited the replication of both R5-tropic HIV-1BaL and X4-tropic HIV-1IIIb in activated PBMCs. […] After this incubation, these solutions were used to resuspend activated PBMCs for 2 hours at 37 °C. HIV-1 replication was monitored by a HIV-1 p24 ELISA assay on the cell culture supernatants performed on day 7 post-infection. […] Three experiments in triplicate were performed.
# X4-tropic HIV-1IIIb = assay: HIV-1IIIb infection of activated PBMCs, HIV-1 gag p24 ELISA on day 7; assay type: cell-based
# Experimental: as §1, §2, §3
# pREJO.c/2864 T/F IMC = assay: T/F IMC infection of TZM-bl cells, luciferase readout; assay type: cell-based, HIV-1; details: pREJO.c/2864, TZM-bl cells
# Experimental: (§4) TZM-bl cells (1 × 10^4/well in a 100 μL volume) in 10% D-MEM growth medium containing DEAE-dextran (Sigma) at a final concentration of 7.5 μg/mL were then added to the plate. Assay controls included replicate wells of TZM-bl cells alone in HEC 0.25% (cell control) and TZM-bl cells with virus (virus control). Following 72 hours of incubation at 37 °C, 150 μL of culture medium were removed from each well and replaced with 100 μL of Bright-Glo luciferase reagent (Promega). After 2-minutes of incubation, 150 μL of the cell lysate were transferred to a 96-well white solid plate and luminescence was measured using a Victor Light 2030 luminometer (Perkin Elmer). The percentage of infection for each T/F strain was calculated by comparing the relative luminescence units (RLU) of the virus control wells after subtraction of the cell control RLU[44].
# (§5) Figure 2 M48U1 in 0.25% HEC and tenofovir in 0.25% HEC each inhibited several laboratory strains and patient-derived HIV-1 isolates. Treatment with either 1 μM M48U1/0.25% (A) or 5 μM tenofovir/0.25% HEC (B) inhibited the replication of all tested laboratory and patient-derived strains. The HIV-1 strain tropism was determined with a sequencing analysis for the patient-derived strains. […] HIV-1 replication was monitored by the HIV-1 p24 ELISA assay using cell culture supernatants obtained on day 7 post-infection. […]
# pTHRO.c/2626 T/F IMC = assay: as above; assay type: cell-based, HIV-1; details: pTHRO.c/2626, TZM-bl cells
# Experimental: as §4, §5
# HIV-1BaL = assay: HIV-1BaL-infected cervicovaginal histoculture (EpiVaginal), proviral DNA qPCR; assay type: cell-based; details: day 4 post-infection, vs HEC-treated infected samples
# Experimental: The EpiVaginal Tissue Model (VLC-100FT; MatTek Corporation, Ashland, MA, USA) was maintained in a 24-well plate according to the manufacturer’s instructions. […] Subsequently, the wells were challenged with HIV-1BaL (25 ng p24/tissue well) for 24 hours. Mock-infected 0.25% HEC-treated wells were used as negative control. The apical surface of each tissue was washed twice with PBS after incubation with HIV-1BaL and the same formulations were added on day 1 for 24 hours. The underlying media was changed every day, and cervicovaginal tissues were harvested on day 4 post-infection.
# Total DNA was extracted and purified from the tissues using the QIAamp DNA Mini Kit (Qiagen, Hilden, Germany). Proviral DNA was quantified by real-time quantitative PCR assay using the HIV-1 DNA qPCR kit (Diatheva, Fano, Italy) based on SYBR Green chemistry as indicated by the manufacturer. […] Total DNA amount was determined by spectrophotometry. The amplification was carried out as follows: an initial cycle of denaturation step at 95 °C for 15 minutes, followed by 10 cycles of denaturation at 95 °C for 15 seconds and annealing/extension at 68 °C for 35 seconds, and a final 35 cycles of denaturation at 95 °C for 15 seconds and annealing/extension with fluorescence acquisition at 68 °C for 35 seconds. […]
# [1] = MTT tissue viability in the EpiVaginal tissue model; assay type: cell-based; details: human, EpiVaginal tissue model (cervicovaginal cultures), 20 μM tenofovir and/or 6.7 μM M48U1 in 0.25% HEC
# Experimental: (§6) At the end of the incubation at 37 °C, the hydrogel was discarded and the cervicovaginal cultures were washed with PBS to remove any residual hydrogel. The cervicovaginal cultures were analyzed using the MTT kit protocol (MatTek Corporation). Cell cultures incubated with sterile distilled water were employed as a negative control. Triton X-100 (1%)-treated cultures were used as the positive control. The LDH cytotoxicity detection kit (TaKaRa Bio Inc, Japan) was used to detect LDH release from the tissues according to the manufacturer’s protocols. […] After incubation, the concentration of IL-1α in the culture medium was measured using the IL-1α ELISA Kit, according to the manufacturer’s instructions (Bender Medsystem, Wien, Austria). The concentration of IL-1α was calculated by interpolation from a standard calibration curve.
# EpiVaginal tissue model = details: human, 20 μM
# Experimental: as §6
# [2] = tested on: HIV-1BaL, HIV-1IIIb, HIV-1ADA, HIV-1RU132, HIV-1ARV-2, HIV-1CBL4; assay: Laboratory HIV-1 strains in activated PBMCs, p24 ELISA on day 7; assay type: cell-based; details: 1 μM M48U1 or 5 μM tenofovir in 0.25% HEC; p < 0.05
# Experimental: as §1
# (§7) Figure 2 M48U1 in 0.25% HEC and tenofovir in 0.25% HEC each inhibited several laboratory strains and patient-derived HIV-1 isolates. Treatment with either 1 μM M48U1/0.25% (A) or 5 μM tenofovir/0.25% HEC (B) inhibited the replication of all tested laboratory and patient-derived strains. The HIV-1 strain tropism was determined with a sequencing analysis for the patient-derived strains. The combination of the two HIV-1 drugs inhibited HIV-1 replication independent of the HIV-1 strain tropism. HIV-1 replication was monitored by the HIV-1 p24 ELISA assay using cell culture supernatants obtained on day 7 post-infection. […] Three experiments in triplicate were performed. Analysis of antiretroviral activity of 1 μM M48U1 in 0.25% HEC (C) or 5 μM tenofovir in 0.25% HEC (D) performed in TZM-bl cells infected with pREJO.c/2864 and pTHRO.c/2626 T/F IMCs. […] Each sample was performed in triplicate and was repeated in three independent experiments.
# [3] = tested on: HIV-1 subtype B and C isolates (HIV-1AMBR5N, HIV-1FBR5N, HIV-1SLR5N, HIV-1ARR5X4, HIV-1CSBX4); assay: Patient-derived HIV-1 isolates in activated PBMCs, p24 ELISA on day 7; assay type: cell-based; details: 1 μM M48U1 (five isolates) or 5 μM tenofovir (three isolates from naïve patients) in 0.25% HEC; p < 0.05
# Experimental: as §1, §7
# HSV-2 = tested on: HSV-2; set-up: method as in PMID 20643915, PMID 22018238, PMID 20709216; details: CAPRISA 004 trial; cited from earlier work
# in vitro = details: human, activated PBMCs
# [4] = 1 μM M48U1 or 5 μM tenofovir in 0.25% HEC
# [5] = 6.7 μM M48U1 or 20 μM tenofovir in 0.25% HEC
structure (smiles),measurement,setting,value
C[C@H](Cn1cnc2c(N)ncnc21)OCP(=O)(O)O [tenofovir],inhibition of HIV-1BaL replication,R5-tropic HIV-1BaL; [4],over 90%
same,IC50,"R5-tropic HIV-1BaL; Human immunodeficiency virus 1, PBMC, 168 h, HIV-1BaL, activated PBMCs, drug in 0.25% HEC, p24 day 7 post-infection",1220 nM
same,inhibition of HIV-1IIIb replication,X4-tropic HIV-1IIIb; [4],over 90%
same,IC50,"X4-tropic HIV-1IIIb; Human immunodeficiency virus 1, PBMC, 168 h, HIV-1IIIb, activated PBMCs, drug in 0.25% HEC, p24 day 7 post-infection",1080 nM
same,reduction in viral replication,pREJO.c/2864 T/F IMC; [4],86.8%
same,reduction in viral replication,pREJO.c/2864 T/F IMC; [5],95%
same,reduction in viral replication,pTHRO.c/2626 T/F IMC; [4],78%
same,reduction in viral replication,pTHRO.c/2626 T/F IMC; [5],93%
same,"decrease in the amount of proviral HIV-1 DNA (folds of inhibition, mean)","HIV-1BaL; 0.67 μM M48U1, 2 μM tenofovir or both in 0.25% HEC",11 fold
same,"decrease in the amount of proviral HIV-1 DNA (folds of inhibition, mean)","HIV-1BaL; 6.7 μM M48U1, 20 μM tenofovir or both in 0.25% HEC",~45 fold
same,"viability at 1 h, 20 μM",[1]; 1 hour,95%
same,"viability at 4 h, 20 μM",[1]; 4 hours,96%
same,"viability at 18 h, 20 μM",[1]; 18 hours,88%
same,"viability at 96 h, 20 μM",[1]; 96 hours,104%
same,LDH release (Abs),EpiVaginal tissue model; 1 h,0.207 ± 0.06 Abs
same,LDH release (Abs),EpiVaginal tissue model; 4 h,0.381 ± 0.05 Abs
same,LDH release (Abs),EpiVaginal tissue model; 18 h,0.922 ± 0.2 Abs
same,LDH release (Abs),EpiVaginal tissue model; 96 h,1.498 ± 0.13 Abs
same,replication of laboratory HIV-1 strains (p24 in cell supernatant),[2],suppressed the replication of all HIV-1 strains tested
same,infection of PBMCs with patient-derived HIV-1 subtype B and C isolates,[3],inhibited viral replication in all three cases
same,decrease of HSV-2 infections,HSV-2,51%
same,CC50 at 7 days,in vitro,> 20000 nM
